This is an account of results in paper PMC9743148 (Annals of oncology : official journal of the European …, 2020).

The test relates to advanced solid tumors.

On to `C=CC(=O)N1CC[C@H](n2nc(C#Cc3cc(OC)cc(OC)c3)c3c(N)ncnc32)C1` [futibatinib], for which the “Patients with CCA experiencing PR or SD” value (18 of 24 patients with cholangiocarcinoma) turned out to be 75%. For the same molecule, the “Best overall response of confirmed partial response (PR)” value (across cohorts (n = 86)) is “five”. Further, under “five responders”, the “Responses lasting >6 months” value is given as “three” and the “Responses occurring within 3 months of initiating futibatinib” value is “Four of five”.
